Tests used:
[1] = 298.15 K; 101.33 kPa; Liquid; Vibrating tube method
[2] = refractive index (Na D-line) (dimensionless); details: 298.15 K; 101.33 kPa; Liquid; Standard Abbe refractometry
[3] = xn = mol fraction of the nth substance listed; details: 298.15 K, 101 kPa, Liquid, Vibrating tube method
[4] = refractive index (Na D-line) (dimensionless); xn = mol fraction of the nth substance listed; details: 298.15 K, 101 kPa, Liquid, Standard Abbe refractometry

c1ccccc1 [benzene]
Details	mass density [kg/m3]	refractive index
[1]	873.57	–
[2]	–	1.49764

COC(=O)OC [dimethyl carbonate]
Details	mass density [kg/m3]	refractive index
[1]	1063.04	–
[2]	–	1.36654

COC(=O)OC [dimethyl carbonate] + Cc1ccccc1
Details	mass density, [3] [kg/m3]	refractive index, [4]
x1 = 0.0496	869.6	1.4883
x1 = 0.0998	877.39	1.4827
x1 = 0.2001	893.69	1.4715
x1 = 0.3003	910.85	1.4597
x1 = 0.3998	928.88	1.4475
x1 = 0.5002	948	1.4352
x1 = 0.5999	968.16	1.4224
x1 = 0.6999	989.62	1.4091
x1 = 0.7998	1012.35	1.3954
x1 = 0.8988	1036.61	1.3814
x1 = 0.9487	1049.29	1.3741

COC(=O)OC [dimethyl carbonate] + c1ccccc1
Details	mass density, [3] [kg/m3]	refractive index, [4]
x1 = 0.0518	882.09	1.4902
x1 = 0.0988	889.99	1.4836
x1 = 0.1995	907.42	1.4699
x1 = 0.2994	925.15	1.4565
x1 = 0.401	943.6	1.4431
x1 = 0.5002	962.07	1.4301
x1 = 0.6003	981.15	1.417
x1 = 0.699	1000.51	1.4044
x1 = 0.7981	1020.48	1.3918
x1 = 0.9	1041.49	1.3789
x1 = 0.9497	1052	1.3727

CCO [ethanol]
Details	mass density [kg/m3]	refractive index
[1]	785.33	–
[2]	–	1.35928

Cc1ccccc1 [toluene]
Details	mass density [kg/m3]	refractive index
[1]	862.19	–
[2]	–	1.49397

— the NIST ThermoML archive (doi:10.1016/j.fluid.2011.01.007)
